Reference: patent US20090030086A1, “ANTIMICROBIAL AGENTS” (priority 2005, published 2009)
≈ marks a conversion by molar mass, not a printed value. Where two headings read alike, the source gives them in different places.

Key:
S. aureus ATCC 29213 [1] = assay: Supplemented disc diffusion assay; type: cell-based, Staphylococcus aureus; conditions: S. aureus ATCC 29213, 200 μg per disc (thymoquinone 50 μg, 2,6-dimethoxy-p-benzoquinone 100 μg); for zone of inhibition at 200 µg/disc: Staphylococcus aureus, ATCC29213, 24 h
Protocol: (§1) The staphylococci and enterococci were cultured and maintained on Mueller-Hinton Medium (agar and broth) at pH 7.2; they were incubated aerobically at 37° C. for 24 hours.
(§2) A sterile paper disc was impregnated with a sample of the test compound and a minimum of 30 minutes allowed for the solvents to evaporate as far as possible. The disc was then placed on an agar plate onto which the test micro-organism had been inoculated. The plate was then incubated under the conditions described above, following which it was examined visually for signs of bacterial growth. […] The diameter of this zone of “inhibition” was measured using a ProtoCOL™ automated zone sizer (Synbiosis, Cambridge, UK).
(§3) Performance under these conditions can provide a more reliable indication of activity on topical application. For assays conducted using S. aureus strains, the supplements were defibrinated horse blood (5% v/v), lipid (Tween™ 80 at 1% v/v) and sodium chloride (100 mM). For those using Propionibacterium spp. strains, the supplements were lipid (Tween™ 80 at 1% v/v) and sodium chloride (100 mM).
(§4) The following experiments all used S. aureus ATCC 29213 as the test organism. MIC, MBC and DDA assays, as described above, were carried out using a range of different benzoquinones and hydroquinones. Supplemented DDA assays, in the presence of salt, lipid and blood, were also conducted.
(§5) For most DDA assays, 200 μg of each compound was loaded onto each disc.

S. aureus ATCC 29213 [2] = assay: MBC assay; type: cell-based, Staphylococcus aureus
Protocol: as §1
(§6) This assay, normally carried out after an MIC assay, determines the minimum concentration of a compound that is lethal to the micro-organism being tested.
(§7) These samples were then individually sub-cultured on non-selective agar medium, under the incubation conditions described above. Following incubation they were examined visually for bacterial growth.
as §4

S. aureus ATCC 29213 [3] = assay: Disc diffusion assay (DDA); type: cell-based, Staphylococcus aureus; conditions: S. aureus ATCC 29213, unsupplemented agar, 200 μg per disc (thymoquinone 50 μg, 2,6-dimethoxy-p-benzoquinone 100 μg); for zone of inhibition at 200 µg/disc: Staphylococcus aureus, ATCC29213, read-out: DDA (diameter of zone of inhibition)
Protocol: as §1, §2
(§8) The area of the zone of inhibition was calculated from the measured zone diameter (D) using the formula π(D/2)^2.
as §5

S. aureus ATCC 29213 [4] = assay: MIC assay; type: cell-based, Staphylococcus aureus; conditions: S. aureus ATCC 29213, Mueller-Hinton broth pH 7.2, aerobic, 37° C., 24 hours
Protocol: 1. Staphylococcus aureus—the principal staphylococcal test micro-organism used in these studies was Staphylococcus aureus ATCC 29213. This strain is the one recommended for QC/QA purposes in Minimum Inhibitory Concentration (MIC) assays by the US Clinical and Laboratory Standards Institute (formerly the NCCLS), an FDA-recognised body.
as §1
(§9) This is a standard international method for quantitatively assessing the antimicrobial activity of a compound in a liquid medium. The method used a 96-well microtitre plate, capable of holding about 200 μl of liquid per well. […] The culture media were as described above for the relevant test organisms.
(§10) The wells were inoculated with a liquid suspension of freshly grown micro-organism and incubated under the conditions described above. After incubation, the microtitre plate was examined visually (with the aid of a light box) for cloudiness in each well, which would indicate microbial growth. The MIC value was recorded as the lowest concentration of test compound required to inhibit microbial growth, i.e., the lowest concentration for which the liquid in the well remained clear.
(§11) The assays were conducted in duplicate and included both negative (culture medium only) and positive (culture medium, diluting solvent and inoculum) controls.
as §4

P. acnes NCTC 737 [5] = assay: Supplemented disc diffusion assay; type: cell-based, Propionibacterium acnes; conditions: for effect of lipid on antimicrobial activity: P. acnes NCTC 737, activity increases in the presence of lipid; for zone of inhibition at 200 µg/disc: Cutibacterium acnes, NCTC737, 72 h
Protocol: (§12) The Propionibacterium spp organisms were cultured and maintained on Wilkins-Chalgren Anaerobe Medium (agar and broth) at pH 6.0; cultures were incubated anaerobically at 37° C. for 72 hours.
as §2, §3
(§13) MIC, MBC and DDA assays, as described above, were carried out using a range of different benzoquinones and hydroquinones. Supplemented DDA assays, in the presence of salt and lipid, were also conducted.
as §5

P. acnes NCTC 737 [6] = assay: Disc diffusion assay (DDA); type: cell-based, Propionibacterium acnes; conditions: Cutibacterium acnes
Protocol: as §12, §2, §8, §5

P. acnes NCTC 737 [7] = assay: MBC assay; type: cell-based, Propionibacterium acnes; conditions: for MIC/MBC ratio: P. acnes NCTC 737
Protocol: as §12, §6, §7, §13

P. acnes NCTC 737 [8] = assay: MIC assay; type: cell-based, Propionibacterium acnes
Protocol: 2. Propionibacterium spp.—the principal propionibacterial strain used in these studies was Propionibacterium acnes NCTC 737.
as §12, §9, §10, §11, §13

[9] = Tween 80 at 1% v/v, read-out: DDA + lipid
[10] = defibrinated horse blood 5% v/v, read-out: DDA + blood
[11] = sodium chloride 100 mM, read-out: DDA + salt
[12] = Staphylococcus aureus, ATCC29213, read-out: MBC
[13] = Staphylococcus aureus, ATCC29213, read-out: MIC
[14] = NCTC737, P. acnes NCTC 737, unsupplemented agar, 200 μg per disc (2,6-dimethoxy-p-benzoquinone 100 μg), read-out: DDA (diameter of zone of inhibition)
[15] = defibrinated horse blood 5% v/v

O=[N+]([O-])c1ccc(O)c(O)c1 [4-nitrocatechol] was tested, and the zone of inhibition at 200 µg/disc (S. aureus ATCC 29213 [1]; [9]) was 16.5 mm, the zone of inhibition at 200 µg/disc (S. aureus ATCC 29213 [1]; [10]) was 11.8 mm and the zone of inhibition at 200 µg/disc (S. aureus ATCC 29213 [1]; [11]) was 19 mm. For the same compound, the MIC/MBC ratio (S. aureus ATCC 29213 [2]) was less than 0.5, the MBC (S. aureus ATCC 29213 [2]; [12]) was greater than 250 µg/mL and the zone of inhibition at 200 µg/disc (S. aureus ATCC 29213 [3]) was 18.9 mm. For the same compound, the MIC (S. aureus ATCC 29213 [4]; [13]) was 125 µg/mL (≈ 806 µM).
With O=C1C=CC(=O)C=C1 [p-benzoquinone] the “effect of lipid on antimicrobial activity” value (shortened to “effect of lipid”) (P. acnes NCTC 737 [5]) was “potentiated”, the zone of inhibition at 200 µg/disc (S. aureus ATCC 29213 [3]) was 29.3 mm and the zone of inhibition at 200 µg/disc (P. acnes NCTC 737 [6]; [14]) was 24.9 mm.
O=C1C(F)=C(F)C(=O)C(F)=C1F [tetrafluoro-p-benzoquinone] gave an MBC (P. acnes NCTC 737 [7]; Cutibacterium acnes, NCTC737) of 250 µg/mL (≈ 1390 µM), an MIC/MBC ratio (P. acnes NCTC 737 [7]) of 0.5 and a zone of inhibition at 200 µg/disc (P. acnes NCTC 737 [5]; read-out: DDA + lipid) of 30.8 mm. For the same compound, the zone of inhibition at 200 µg/disc (P. acnes NCTC 737 [5]; read-out: DDA + salt) was 32.4 mm, the “effect of lipid” value (P. acnes NCTC 737 [5]) was “potentiated” and the zone of inhibition at 200 µg/disc (P. acnes NCTC 737 [6]; NCTC737, read-out: DDA (diameter of zone of inhibition)) was 25.9 mm. The “activity against P. acnes NCTC 737 (in words)” value (P. acnes NCTC 737 [8]) was “strongly so” and the MIC (P. acnes NCTC 737 [8]; Cutibacterium acnes, NCTC737, 72 h, pH 6) was 125 µg/mL (≈ 694 µM).
In the case of Oc1ccc(O)cc1 [p-hydroquinone], the MIC/MBC ratio (S. aureus ATCC 29213 [2]) was 1 and the “DDA (diameter of zone of inhibition)” value (S. aureus ATCC 29213 [3]) was 18.94 mm.
For CC1=CC(=O)C(C(C)C)=CC1=O [thymoquinone], the MIC/MBC ratio (P. acnes NCTC 737 [7]) was 0.5, the MIC/MBC ratio (S. aureus ATCC 29213 [2]) was 0.5 and the “effect of lipid” value (P. acnes NCTC 737 [5]) was “potentiated”. It also gave a zone of inhibition at 200 µg/disc (S. aureus ATCC 29213 [3]) of 15.6 mm and a zone of inhibition at 200 µg/disc (P. acnes NCTC 737 [6]; [14]) of 27.5 mm.
CC(C)(C)c1ccc(O)c(O)c1 [4-t-butylcatechol] showed a zone of inhibition at 200 µg/disc (S. aureus ATCC 29213 [1]; [9]) of 10.9 mm, a zone of inhibition at 200 µg/disc (S. aureus ATCC 29213 [1]; [10]) of 9.65 mm and a zone of inhibition at 200 µg/disc (S. aureus ATCC 29213 [1]; [11]) of 13.1 mm. For the same compound, the MIC/MBC ratio (S. aureus ATCC 29213 [2]) was 1, the MBC (S. aureus ATCC 29213 [2]; [12]) was 62.5 µg/mL (≈ 376 µM) and the zone of inhibition at 200 µg/disc (S. aureus ATCC 29213 [3]) was 12 mm. For the same compound, the MIC (S. aureus ATCC 29213 [4]; [13]) was 62.5 µg/mL (≈ 376 µM).
With Oc1ccc(O)c(Br)c1 [2-bromo-p-hydroquinone] the “DDA + lipid” value (S. aureus ATCC 29213 [1]; Tween 80 at 1% v/v) was 17.43 mm, the “DDA + blood” value (S. aureus ATCC 29213 [1]; [15]) was 14.94 mm and the “DDA + salt” value (S. aureus ATCC 29213 [1]; sodium chloride 100 mM) was 18.99 mm. For the same compound, the MBC (S. aureus ATCC 29213 [2]) was 31.25 µg/mL (≈ 165 µM), the MIC/MBC ratio (S. aureus ATCC 29213 [2]) was 1 and the “DDA (diameter of zone of inhibition)” value (S. aureus ATCC 29213 [3]) was 20.75 mm. The MIC (S. aureus ATCC 29213 [4]) was 31.25 µg/mL (≈ 165 µM).
For Cc1cc(O)c(C)c(C)c1O [2,5,6-trimethyl-p-hydroquinone], the “DDA + lipid” value (S. aureus ATCC 29213 [1]; Tween 80 at 1% v/v) was 56.97 mm, the “DDA + blood” value (S. aureus ATCC 29213 [1]; [15]) was 0.0 mm and the “DDA + salt” value (S. aureus ATCC 29213 [1]; sodium chloride 100 mM) was 61.63 mm. For the same compound, the MBC (S. aureus ATCC 29213 [2]) was 31.25 µg/mL (≈ 205 µM), the MIC/MBC ratio (S. aureus ATCC 29213 [2]) was 0.25 and the “DDA (diameter of zone of inhibition)” value (S. aureus ATCC 29213 [3]) was 63.40 mm. It also gave an MIC (S. aureus ATCC 29213 [4]) of 7.8 µg/mL (≈ 51.3 µM).
CC(C)(C)C1=CC(=O)C=C(C(C)(C)C)C1=O [2,6-di-t-butyl-p-benzoquinone] was tested, and the zone of inhibition at 200 µg/disc (S. aureus ATCC 29213 [1]; [9]) was 9.37 mm, the zone of inhibition at 200 µg/disc (S. aureus ATCC 29213 [1]; [10]) was 0 mm and the zone of inhibition at 200 µg/disc (S. aureus ATCC 29213 [1]; [11]) was 0 mm. The MIC/MBC ratio (S. aureus ATCC 29213 [2]) was 0.25, the MBC (S. aureus ATCC 29213 [2]; [12]) was 250 µg/mL (≈ 1130 µM) and the zone of inhibition at 200 µg/disc (S. aureus ATCC 29213 [3]) was 0 mm. The MIC (S. aureus ATCC 29213 [4]; [13]) was 62.5 µg/mL (≈ 284 µM).
